This note sets out measurements from publication PMC4550478, “Metronidazole-triazole conjugates: Activity against Clostridium difficile and parasites” (European Journal of Medicinal Chemistry, 2015).

In brackets after ≈: the same amount, converted by molar mass. Where only a bound is given, the exact number is not on record here.

The MIC is the lowest concentration that inhibits growth of the organism. A word on the EC50: it is the midpoint of the concentration-response curve. The low end stands for an effect from little substance, the high end for a need for much substance.

In test [1] the test system is C. difficile NAP1/027 M7404. In words: MIC broth microdilution, C. difficile NAP1/027 M7404. The format is cell-based, Clostridium difficile. To be noted: NAP1/027 (footnote d: M7404), MtzS, 24 h, median of at least n = 4; for MIC: Clostridioides difficile, NAP1/027M7404. On the procedure: All compounds were tested for activity against a set of anaerobic C. difficile bacteria (630 ATCC BAA-1382, NAP1/027 M7404, NAP1/027 ATCC BAA-1803, VPI10463 ATCC 43255, CD26A54_S and CD26A54_R) and representative ESKAPE pathogens S. aureus (MRSA ATCC 43300), E. coli (ATCC 25922), K. pneumoniae (ATCC 700603), A. baumannii (ATCC 19606) and P. aeruginosa (ATCC 27853) using a standard broth microdilution assay. Selected compounds were tested for activity against H. pylori strains (26695, and clinical isolates MtzS 13/25, MtzR 98/285 and MtzR 13/61) using agar plate dilution, and for antimicrobial activity against […] Gram-positive bacterial strains: Enterococcus faecalis (VanA clinical isolate), Enterococcus faecium (MDR VanA ATCC 51559), Streptococcus pneumoniae (MDR ATCC 700677), S. aureus (MRSA ATCC 43300, MRSA clinical isolate, MRSA/DRSA clinical isolate, GISA NARSA NRS 1, GISA NARSA NRS 17, VRSA NARSA VRS1, VRSA NARSA VRS4 and VRSA NARSA VRS10) using broth microdilution. C. difficile strains were grown at 37 °C in a COY anaerobic chamber (5% H2, 10% CO2, 85% N2). H. pylori strains were grown at 37 °C under a microaerobic atmosphere (5% O2, 10% CO2). All facultative anaerobic bacteria were grown at 37 °C with normal atmospheric oxygen levels. All experiments were performed in duplicate with metronidazole, vancomycin, linezolid or colistin as positive controls for relevant strains (see Table 1). Positive growth control of bacteria and DMSO as well as a negative control of only media were included for every plate. Full assay details are provided in the supplementary information.
C. difficile ATCC BAA-1382, ATCC BAA-1803, ATCC 43255 and M7404 heat shocked spore stocks (10 µL) were transferred into the anaerobic chamber and 10 µL streaked onto pre-reduced (at least 2.5 hr in anaerobic chamber) BHIS agar plates supplemented with 0.1% w/v sodium taurocholate (BHIS(TA)). Plates were incubated for 24 hours prior to assay to give colonies of size 1-3mm diameter with characteristic uneven borders.
The minimum inhibition concentration was determined according to the CLSI Methods with modifications in broth and inoculum for C. difficile according to Babakhani et al.^7,8 Briefly, compounds were prepared to 20X final concentration in 100% water, 60% DMSO and 40% water or 60% DMSO and 40% media. The compounds along with standard antibiotics were serially diluted two-fold across the wells of 96-well non-binding surface plates (Non binding surface, Corning). The plates were placed in the anaerobic chamber overnight to reduce. C. difficile bacteria from BHIS(TA) agar plates were cultured anaerobically in BHIS at 37 °C overnight. A sample of culture was then diluted 40-fold in BHIS broth and incubated at 37 °C for approximately 4.5 hrs. The resultant mid-log phase culture (OD600= 0.5-0.6) was diluted to the final concentration of ~1×10^6 CFU/mL, then 50 µL was added to each well of the compound-containing 96-well plates. This gave final cell concentration of 5×10^5 CFU/mL, final volume 100 µL and 3% maximum DMSO concentration. Compound concentration was typically from 64 to 0.03 µg/mL. An antibiotic standard was included on each 96 well plate as well as a positive growth control (no compound) and sterility control (no bacteria). All the plates were covered and incubated at 37 °C for 24 h. MICs were the lowest concentration showing no visible growth.
On the technique in general: In broth dilution the organism is exposed to a series of concentrations in liquid medium.

The test system of test [2] is G. lamblia WB trophozoites. The experiment in a line: ATP-bioluminescence growth and survival assay, G. lamblia WB. The conditions noted are these: MtzS, 48 h, anaerobic, n = 3. The format is cell-based, Giardia lamblia. On the procedure: Compounds were tested for antiparasitic activity against E. histolytica (HM1:1MSS strain) and G. lamblia (WB, BRIS/87/HEPU/713 (713), BRIS/83/HEPU/106 (106) and the metronidazole resistant syngeneic line 713-M3 [[15,16]]) using an ATP-bioluminescence based screen for cell growth and survival [[17,18]]. Assay plates were inoculated with trophozoites (5 × 10^3 parasites/well) and incubated in the GasPak™ EZ Anaerobe Gas Generating Pouch Systems (VWR, West Chester, PA) to maintain anaerobic conditions throughout the incubation period. The assays were performed in triplicate using the CellTiter-Glo Luminescent Cell Viability Assay. Metronidazole was used as a positive control.
Trophozoites of E. histolytica strain HM1:IMSS and G. lamblia strains WB, BRIS/87/HEPU/713 (713),^10 BRIS/83/HEPU/106 (106)^11 and the metronidazole resistant syngenic line 713-M3^10,11 were axenically maintained in TYI-S-33 medium supplemented with penicillin (100 U/ml), streptomycin (100 µg/ml).^12 E. histolytica and G. lamblia trophozoites were counted using a particle counter (Beckman Coulter, Fullerton, CA). All experiments were performed using trophozoites harvested during the logarithmic phase of growth.
A three-fold serial dilution was then performed yielding a concentration range 0.25-625 µM. From this dilution plate, 4 µL were transferred into the 96-well screen plates followed by addition of 96 µL of trophozoites (5,000 parasites) to yield a final 8-point concentration range spanning 0.01- 25 µM. Assay plates were incubated for 48 h at 37 °C in the GasPak^TM EZ Anaerobe Gas Generating Pouch Systems (VWR, West Chester, PA) to maintain anaerobic condition throughout the incubation period. The assays were performed in triplicate using the CellTiter-Glo Luminescent Cell Viability Assay.^13

In test [1], `Cc1ncc([N+](=O)[O-])n1CCO` [Compound 1, metronidazole] had a minimum inhibitory concentration (MIC) of 0.5 µg/mL (≈ 2.92 µM). In test [2] (Giardia duodenalis), the response was half-maximal at 7900 nM (EC50).

On to `Cc1ncc([N+](=O)[O-])n1CCN=[N+]=[N-]` [Compound 3, 1-(2-azidoethyl)-2-methyl-5-nitro-1H-imidazole], for which the “MIC C. difficile NAP1/027 (footnote d)” value in test [1] worked out at 0.5 µg/mL (≈ 2.55 µM). Also, in test [2], a half-maximal effect (EC50) was put at 1500 nM.

`Cc1ncc([N+](=O)[O-])n1CCn1cc(-c2ccccc2)nn1` [Compound 4a, 1-(2-(2-methyl-5-nitro-1H-imidazol-1-yl)ethyl)-4-phenyl-1H-1,2,3-triazole] displayed an MIC in test [1] of 0.5 µg/mL (≈ 1.68 µM). Also, the EC50 in test [2] (Giardia duodenalis) was found to be 250 nM.

On to `COc1ccc(-c2cn(CCn3c([N+](=O)[O-])cnc3C)nn2)cc1` [Compound 4b, 1-(2-(2-methyl-5-nitro-1H-imidazol-1-yl)ethyl)-4-(4-methoxyphenyl)-1H-1,2,3-triazole], for which, in test [1], the minimum inhibitory concentration (MIC) is 0.5 µg/mL (≈ 1.52 µM). The compound also gave a concentration for a half-maximal effect (EC50) in test [2] (Giardia duodenalis) of 270 nM.

For `Cc1ncc([N+](=O)[O-])n1CCn1cc(-c2ccc(Cl)cc2)nn1` [Compound 4c, 1-(2-(2-methyl-5-nitro-1H-imidazol-1-yl)ethyl)-4-(4-chlorophenyl)-1H-1,2,3-triazole], the MIC in test [1] was 0.25 µg/mL (≈ 0.751 µM). In test [2] (Giardia duodenalis), this compound gave an EC50 of 200 nM.

The compound `Cc1ncc([N+](=O)[O-])n1CCn1cc(-c2ccc(Cl)c(Cl)c2)nn1` [Compound 4d, 1-(2-(2-methyl-5-nitro-1H-imidazol-1-yl)ethyl)-4-(3,4-dichlorophenyl)-1H-1,2,3-triazole] gave a minimal inhibitory concentration (MIC) in test [1] of 1 µg/mL (≈ 2.72 µM). Also, in test [2] (Giardia duodenalis), the midpoint of the response, the EC50, lay at 390 nM.

As for `Cc1ccc(-c2cn(CCn3c([N+](=O)[O-])cnc3C)nn2)cc1` [Compound 4e, 1-(2-(2-methyl-5-nitro-1H-imidazol-1-yl)ethyl)-4-(p-tolyl)-1H-1,2,3-triazole], the MIC in test [1] was determined as 0.5 µg/mL (≈ 1.6 µM). This compound also displayed a half-maximal effective concentration (EC50) in test [2] (Giardia duodenalis) of 180 nM.

As for `COC(=O)c1cn(CCn2c([N+](=O)[O-])cnc2C)nn1` [Compound 4f, 1-(2-(2-methyl-5-nitro-1H-imidazol-1-yl)ethyl)-4-(methoxycarbonyl)-1H-1,2,3-triazole], the minimal inhibitory concentration (MIC) in test [1] came out at 1 µg/mL (≈ 3.57 µM). The compound further gave an EC50 in test [2] (Giardia duodenalis) of 3000 nM.

On to `Cc1ncc([N+](=O)[O-])n1CCn1cc(Cn2cccn2)nn1` [Compound 4g, 1-(2-(2-methyl-5-nitro-1H-imidazol-1-yl)ethyl)-4-((1H-pyrazol-1-yl)methyl)-1H-1,2,3-triazole], for which, in test [1], the MIC is 1 µg/mL (≈ 3.31 µM). Moreover, the EC50 in test [2] (Giardia duodenalis) was 4900 nM.

In the case of `Cc1ncc([N+](=O)[O-])n1CCn1cc(-c2ccccn2)nn1` [Compound 4h, 1-(2-(2-methyl-5-nitro-1H-imidazol-1-yl)ethyl)-4-(2-pyridinyl)-1H-1,2,3-triazole.xTFA], in test [1], the minimum inhibitory concentration (MIC) was 0.5 µg/mL. In test [2] (Giardia duodenalis), this compound came in with an EC50 of 740 nM.

`Cc1ncc([N+](=O)[O-])n1CCn1cc(-c2cncnc2)nn1` [Compound 4i, 1-(2-(2-methyl-5-nitro-1H-imidazol-1-yl)ethyl)-4-(5-pyrimidinyl)-1H-1,2,3-triazole] showed an MIC in test [1] of 1 µg/mL (≈ 3.33 µM). Besides, it took 3300 nM to reach a half-maximal effect in test [2] (Giardia duodenalis) (EC50).

With `Cc1ncc([N+](=O)[O-])n1CCn1cc(-c2ncccn2)nn1` [Compound 4j, 1-(2-(2-methyl-5-nitro-1H-imidazol-1-yl)ethyl)-4-(2-pyrimidinyl)-1H-1,2,3-triazole], the MIC in test [1] is 2 µg/mL (≈ 6.66 µM). The compound also came in with a concentration giving a half-maximal response (EC50) in test [2] (Giardia duodenalis) of 1700 nM.

In turn, `Cc1ncc([N+](=O)[O-])n1CCn1cc(Cc2ccccc2)nn1` [Compound 4k, 1-(2-(2-methyl-5-nitro-1H-imidazol-1-yl)ethyl)-4-benzyl-1H-1,2,3-triazole] gave a minimum inhibitory concentration (MIC) in test [1] of 0.5 µg/mL (≈ 1.6 µM). The EC50 in test [2] (Giardia duodenalis) is 700 nM.

In turn, `Cc1ncc([N+](=O)[O-])n1CCn1cc(C(O)c2ccccc2)nn1` (centres unmarked) [Compound 4l, 1-(2-(2-methyl-5-nitro-1H-imidazol-1-yl)ethyl)-4-(1-phenyl-1-hydroxylmethyl)-1H-1,2,3-triazole] had a minimal inhibitory concentration (MIC) in test [1] of 0.5 to 1 µg/mL (≈ 1.52 to 3.05 µM). Moreover, in test [2] (Giardia duodenalis), the EC50 is 4400 nM.

Compound `Cc1ncc([N+](=O)[O-])n1CCn1cc(CN(C)Cc2ccccc2)nn1` [Compound 4m, 1-(2-(2-methyl-5-nitro-1H-imidazol-1-yl)ethyl)-4-(N-benzyl, N-methylaminomethyl)-1H-1,2,3-triazole] had an MIC in test [1] of 2 µg/mL (≈ 5.63 µM). In addition, the response in test [2] (Giardia duodenalis) was half-maximal at 1600 nM (EC50).

In the case of `Cc1ncc([N+](=O)[O-])n1CCn1cc(-c2ccsc2)nn1` [Compound 4n, 1-(2-(2-methyl-5-nitro-1H-imidazol-1-yl)ethyl)-4-(thiophen-3-yl)-1H-1,2,3-triazole], the MIC in test [1] is 0.5 µg/mL (≈ 1.64 µM). In test [2] (Giardia duodenalis), this compound had an EC50 of 370 nM.

Compound `Cc1ncc([N+](=O)[O-])n1CCn1cc(CN2CCS(=O)(=O)CC2)nn1` [Compound 4o, 1-(2-(2-methyl-5-nitro-1H-imidazol-1-yl)ethyl)-4-((1,1-dioxothiomorpholin-4-yl)methyl)-1H-1,2,3-triazole] came in with an MIC in test [1] above 64 µg/mL. Also, in test [2] (Giardia duodenalis), the half-maximal effective concentration (EC50) is above 25000 nM.

In the case of `Cc1ncc([N+](=O)[O-])n1CCn1cc(CCO)nn1` [Compound 4p, 1-(2-(2-methyl-5-nitro-1H-imidazol-1-yl)ethyl)-4-(2-hydroxyethyl)-1H-1,2,3-triazole], the minimal inhibitory concentration (MIC) in test [1] stood at 8 µg/mL (≈ 30 µM). Moreover, the 50% effective concentration (EC50) in test [2] (Giardia duodenalis) is above 25000 nM.

With `Cc1ncc([N+](=O)[O-])n1CCn1cc(CO)nn1` [Compound 4q, 1-(2-(2-methyl-5-nitro-1H-imidazol-1-yl)ethyl)-4-(hydroxymethyl)-1H-1,2,3-triazole], in test [1], the minimal inhibitory concentration (MIC) amounted to 16 µg/mL (≈ 63.4 µM). The compound also showed a concentration for a half-maximal effect (EC50) in test [2] (Giardia duodenalis) above 25000 nM.

Consider `Cc1ncc([N+](=O)[O-])n1CCn1cc(CCC(=O)O)nn1` [Compound 4r, sodium 1-(2-(2-methyl-5-nitro-1H-imidazol-1-yl)ethyl)-4-(carboxyethyl)-1H-1,2,3-triazole], for which the minimum inhibitory concentration (MIC) in test [1] is above 64 µg/mL. The EC50 in test [2] (Giardia duodenalis) is above 25000 nM.

`Cc1ncc([N+](=O)[O-])n1CCn1cc(C(=O)O)nn1` [Compound 4s, 1-(2-(2-methyl-5-nitro-1H-imidazol-1-yl)ethyl)-4-(carboxy)-1H-1,2,3-triazole]: the minimal inhibitory concentration (MIC) in test [1] came to 64 µg/mL (≈ 240 µM). The same compound returned an EC50 in test [2] (Giardia duodenalis) above 25000 nM.

`Cc1ncc([N+](=O)[O-])n1CCn1cc(CN)nn1.O=C(O)C(F)(F)F` [Compound 4t, 1-(2-(2-methyl-5-nitro-1H-imidazol-1-yl)ethyl)-4-(aminomethyl)-1H-1,2,3-triazole trifluoroacetate salt]: the minimal inhibitory concentration (MIC) in test [1] is above 64 µg/mL. This compound also registered an EC50 in test [2] (Giardia duodenalis) above 25000 nM.
